# Literature values in patent US20260116844A1, “LIPID NANOPARTICLE FORMULATION COMPRISING IONIZED LIPIDS WITH BRANCHED STRUCTURE, AND USE THEREOF” (SurgiNex Co., Ltd., priority 2022, published 2026).
# Tested on: blood coagulation factor FVII
smiles,measurement,setting,value
CCCCC/C=C\C/C=C\CCCCCCCCC(CCCCCCCC/C=C\C/C=C\CCCCC)OC(=O)CCCN(C)C [Dlin-MC3-DMA],ED50,"mouse FVII model, siRNA delivery",5 µg/kg
same,times more effective than existing ionized lipids,"mouse, in vivo",approximately 1000 times
